Publication PMC3700763, “First human dose-escalation study with remogliflozin etabonate, a selective inhibitor of the sodium-glucose transporter 2 (SGLT2), in healthy subjects and in subjects with type 2 diabetes mellitus” (BMC Pharmacology & Toxicology, 2013)

Assay: Adverse events after single oral doses, T2DM subjects (Part B)
Assay type: in vivo, human
Settings: for At least one adverse event: n = 6
Protocol: This double-blind, randomized, placebo-controlled, single escalating-dose crossover study was conducted in two parts: Part A consisted of a randomized, dose-escalation in healthy subjects; Part B was of similar design, but conducted in subjects with T2DM and included an evaluation of pharmacodynamics using a 50 g oral glucose tolerance test (OGTT).
Six subjects with T2DM received two doses of remogliflozin etabonate and a placebo dose, in a randomized, dose escalating, crossover design, along with an oral glucose load on three study sessions separated by 7–14 days. Full PK and safety profiles were measured on Day 1 of each dosing period. The doses selected for this portion of the study, 50 mg and 500 mg, were based on data obtained in Part A. In each dosing period, subjects were assigned to active vs placebo in a 2:1 ratio.
All subjects were admitted to the unit two nights prior to receiving study drug to establish baseline safety parameters and fluid intake levels over a 36 h period. Subjects remained in the unit for at least 24 h after doses were administered for monitoring of clinical laboratory parameters exploratory biomarkers, vital signs, ECGs and adverse events. While confined to the clinical research unit, all subjects received meals standardized with respect to calories, fat, protein, carbohydrate, and sodium content; however, detailed dietary information was not captured in this study. In Part A, subjects were dosed following an overnight fast; lunch and dinner were provided at 4 and 10 h after dosing, respectively. Fifteen minutes after dosing in each treatment period in Part B, a fasting OGTT was performed using 50 g glucose (administered as 50 g Glucola™). A 50 g glucose load was chosen since the OGTT was being performed in subjects already known to have diabetes. The glucose drink was consumed by subjects within approximately 5 minutes. Blood samples for the measurement of glucose, insulin, and intact glucagon-like peptide 1 (GLP-1) were collected for 24 hours following dose administration. Provided that there were no safety or tolerability concerns, subjects were released from the clinic on day 2 of each treatment period until their return for the next treatment or follow-up period. Each subject was involved in the study for approximately 8 weeks (from screening to follow-up).

CCOC(=O)OC[C@H]1O[C@@H](Oc2nn(C(C)C)c(C)c2Cc2ccc(OC(C)C)cc2)[C@H](O)[C@@H](O)[C@@H]1O [Remogliflozin etabonate, remogliflozin etabonate]
0 n (%): Nausea (drug-related adverse events) (50 mg single oral dose) | Pain in extremity (drug-related adverse events) (50 mg single oral dose) | β2-microglobulin increased (adverse events reported by >1 subject in total) (50 mg single oral dose) | β2-microglobulin increased (drug-related adverse events) (50 mg single oral dose) | Muscle cramp (adverse events reported by >1 subject in total) (500 mg single oral dose)
2 (33) n (%): β2-microglobulin increased (adverse events reported by >1 subject in total) (500 mg single oral dose) | At least one adverse event (500 mg single oral dose)
1 (17) n (%): Muscle cramp (adverse events reported by >1 subject in total) (50 mg single oral dose) | At least one adverse event (50 mg single oral dose) | Nausea (drug-related adverse events) (500 mg single oral dose) | Pain in extremity (drug-related adverse events) (500 mg single oral dose) | β2-microglobulin increased (drug-related adverse events) (500 mg single oral dose)
